# From patent US11413264B2, “Carbamoyl phenylalaninol analogs and uses thereof” (Jazz Pharmaceuticals Ireland Limited, priority 2017, dated 2022)
# Counter-ions that a name gives are not always drawn. Like-named read-outs stand apart in the source and are kept apart here.
# Legend:
# [1] = biological target: T1, alpha2A adrenergic receptor (Alpha2A) (Homo sapiens, UniProt P08913); assay: Competitive radioligand binding assay, α2A (antagonist radioligand); settings: compound at 10 μM
# T1 construct: expressed in transfected cells; host or cells: CHO cells (membrane fractions)
# T1 sequence (P08913 1-465): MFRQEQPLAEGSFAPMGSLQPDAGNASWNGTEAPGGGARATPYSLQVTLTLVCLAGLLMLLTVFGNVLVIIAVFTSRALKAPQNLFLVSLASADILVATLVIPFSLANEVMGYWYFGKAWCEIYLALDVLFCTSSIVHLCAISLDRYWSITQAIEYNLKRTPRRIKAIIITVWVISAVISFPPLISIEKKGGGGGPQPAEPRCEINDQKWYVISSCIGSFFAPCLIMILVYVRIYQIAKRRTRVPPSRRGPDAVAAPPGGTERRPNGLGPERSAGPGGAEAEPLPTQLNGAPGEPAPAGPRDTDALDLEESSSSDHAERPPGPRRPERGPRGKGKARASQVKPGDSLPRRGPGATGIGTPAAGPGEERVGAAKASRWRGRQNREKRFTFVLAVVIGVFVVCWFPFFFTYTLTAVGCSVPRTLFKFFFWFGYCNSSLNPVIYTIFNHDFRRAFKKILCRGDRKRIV
# Experimental: (§1) Compounds of the invention were tested for pharmacological activity in comparison to APC. Eight binding assays were carried out to provide a binding profile for each compound, including binding to dopamine transporter (DAT), norepinephrine transporter (NET), serotonin (5-HT) transporter (SERT), alpha2A adrenergic receptor (Alpha2A), alpha2C adrenergic receptor (Alpha2C), D2S dopamine receptor (D2S), D2L dopamine receptor (D2L), and vesicular monoamine transporter (VMAT2). Competitive binding assays using a radiolabeled ligand were carried out with each compound at 10 μM. The radioligand for each target was as follows: DAT—BTCP, NET—nisoxetine, SERT—imipramine, Alpha2A—yohimbine, Alpha2C—yohimbine, D2S—7-OH-DPAT, D2L—methylspiperone, VMAT2—tetrabenazine. The source of the receptors and transporters were prepared cell membrane fractions.
# [2] = biological target: T2, alpha2C adrenergic receptor (Alpha2C) (Homo sapiens, UniProt P18825); assay: Competitive radioligand binding assay, α2C (antagonist radioligand); settings: compound at 10 μM
# T2 construct: expressed in transfected cells; host or cells: CHO cells (membrane fractions)
# T2 sequence (P18825 1-462): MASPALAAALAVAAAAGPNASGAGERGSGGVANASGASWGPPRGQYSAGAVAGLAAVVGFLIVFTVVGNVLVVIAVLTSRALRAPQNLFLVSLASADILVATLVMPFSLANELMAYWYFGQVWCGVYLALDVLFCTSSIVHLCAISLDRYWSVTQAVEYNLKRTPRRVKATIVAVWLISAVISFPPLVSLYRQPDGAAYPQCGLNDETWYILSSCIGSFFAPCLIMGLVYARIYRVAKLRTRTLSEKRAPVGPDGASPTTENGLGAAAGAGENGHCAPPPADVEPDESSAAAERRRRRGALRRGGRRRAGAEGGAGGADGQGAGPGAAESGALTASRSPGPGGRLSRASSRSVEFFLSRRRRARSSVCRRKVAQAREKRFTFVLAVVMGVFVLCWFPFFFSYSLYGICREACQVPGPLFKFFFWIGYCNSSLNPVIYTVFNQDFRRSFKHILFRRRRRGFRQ
# Experimental: as §1
# [3] = biological target: T3, D2S dopamine receptor (D2S) (Homo sapiens, UniProt P14416); assay: Competitive radioligand binding assay, D2S (agonist radioligand); settings: compound at 10 μM
# T3 construct: expressed in transfected cells; host or cells: HEK-293 cells (membrane fractions)
# T3 sequence (P14416 1-414 isoform P14416-2): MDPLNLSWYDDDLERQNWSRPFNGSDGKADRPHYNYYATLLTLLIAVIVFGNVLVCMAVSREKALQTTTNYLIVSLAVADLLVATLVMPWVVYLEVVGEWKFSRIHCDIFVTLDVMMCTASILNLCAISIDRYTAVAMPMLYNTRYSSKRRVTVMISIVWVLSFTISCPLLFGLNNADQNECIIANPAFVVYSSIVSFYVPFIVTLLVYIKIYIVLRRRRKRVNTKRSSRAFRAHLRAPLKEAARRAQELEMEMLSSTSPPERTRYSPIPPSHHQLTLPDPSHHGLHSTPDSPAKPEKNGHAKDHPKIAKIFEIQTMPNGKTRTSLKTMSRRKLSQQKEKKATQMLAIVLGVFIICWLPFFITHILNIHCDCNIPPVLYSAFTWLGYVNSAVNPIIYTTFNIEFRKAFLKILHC
# Experimental: as §1
# [4] = biological target: T4, D2L dopamine receptor (D2L) (Homo sapiens, UniProt P14416); assay: Competitive radioligand binding assay, D2L (antagonist radioligand); settings: compound at 10 μM
# T4 construct: expressed in transfected cells; host or cells: HEK-293 cells (membrane fractions)
# T4 sequence (P14416 whole entry): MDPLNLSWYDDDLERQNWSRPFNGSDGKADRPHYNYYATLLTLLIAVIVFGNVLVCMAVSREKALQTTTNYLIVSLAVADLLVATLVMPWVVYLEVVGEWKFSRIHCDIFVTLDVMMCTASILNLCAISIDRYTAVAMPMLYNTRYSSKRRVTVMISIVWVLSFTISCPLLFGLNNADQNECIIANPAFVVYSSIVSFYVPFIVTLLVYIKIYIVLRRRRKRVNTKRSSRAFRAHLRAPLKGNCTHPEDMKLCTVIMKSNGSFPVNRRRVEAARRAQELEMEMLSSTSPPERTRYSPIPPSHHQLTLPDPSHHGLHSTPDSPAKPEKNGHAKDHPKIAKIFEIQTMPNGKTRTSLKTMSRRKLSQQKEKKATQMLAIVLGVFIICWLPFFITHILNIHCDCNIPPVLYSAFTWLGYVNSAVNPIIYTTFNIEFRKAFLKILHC
# Experimental: as §1
# [5] = biological target: T5, norepinephrine transporter (NET) (Homo sapiens, UniProt P23975); assay: Competitive radioligand binding assay, norepinephrine transporter (antagonist radioligand); settings: compound at 10 μM; for binding to the norepinephrine transporter (in words): summary
# T5 construct: expressed in transfected cells; host or cells: CHO cells (membrane fractions)
# T5 sequence (P23975 whole entry): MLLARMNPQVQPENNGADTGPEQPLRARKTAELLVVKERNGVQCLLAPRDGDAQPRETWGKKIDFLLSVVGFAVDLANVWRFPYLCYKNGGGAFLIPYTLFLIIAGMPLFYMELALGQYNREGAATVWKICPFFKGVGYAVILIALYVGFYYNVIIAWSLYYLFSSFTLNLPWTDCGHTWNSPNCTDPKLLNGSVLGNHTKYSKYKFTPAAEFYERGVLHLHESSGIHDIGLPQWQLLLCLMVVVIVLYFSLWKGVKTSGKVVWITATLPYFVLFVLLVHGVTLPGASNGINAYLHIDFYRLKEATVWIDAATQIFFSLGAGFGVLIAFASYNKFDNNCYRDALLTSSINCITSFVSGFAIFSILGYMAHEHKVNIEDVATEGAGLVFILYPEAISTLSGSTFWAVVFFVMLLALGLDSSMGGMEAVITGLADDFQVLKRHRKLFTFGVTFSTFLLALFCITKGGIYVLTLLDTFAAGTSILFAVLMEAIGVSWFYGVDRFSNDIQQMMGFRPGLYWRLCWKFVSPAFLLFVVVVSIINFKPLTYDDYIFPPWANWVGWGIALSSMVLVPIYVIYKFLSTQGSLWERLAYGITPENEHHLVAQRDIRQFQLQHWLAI
# Experimental: as §1
# [6] = biological target: T6, dopamine transporter (DAT) (Homo sapiens, UniProt Q01959); assay: Competitive radioligand binding assay, dopamine transporter (antagonist radioligand); settings: compound at 10 μM; for binding to the dopamine transporter (in words): summary
# T6 construct: expressed in transfected cells; host or cells: CHO cells (membrane fractions)
# T6 sequence (Q01959 whole entry): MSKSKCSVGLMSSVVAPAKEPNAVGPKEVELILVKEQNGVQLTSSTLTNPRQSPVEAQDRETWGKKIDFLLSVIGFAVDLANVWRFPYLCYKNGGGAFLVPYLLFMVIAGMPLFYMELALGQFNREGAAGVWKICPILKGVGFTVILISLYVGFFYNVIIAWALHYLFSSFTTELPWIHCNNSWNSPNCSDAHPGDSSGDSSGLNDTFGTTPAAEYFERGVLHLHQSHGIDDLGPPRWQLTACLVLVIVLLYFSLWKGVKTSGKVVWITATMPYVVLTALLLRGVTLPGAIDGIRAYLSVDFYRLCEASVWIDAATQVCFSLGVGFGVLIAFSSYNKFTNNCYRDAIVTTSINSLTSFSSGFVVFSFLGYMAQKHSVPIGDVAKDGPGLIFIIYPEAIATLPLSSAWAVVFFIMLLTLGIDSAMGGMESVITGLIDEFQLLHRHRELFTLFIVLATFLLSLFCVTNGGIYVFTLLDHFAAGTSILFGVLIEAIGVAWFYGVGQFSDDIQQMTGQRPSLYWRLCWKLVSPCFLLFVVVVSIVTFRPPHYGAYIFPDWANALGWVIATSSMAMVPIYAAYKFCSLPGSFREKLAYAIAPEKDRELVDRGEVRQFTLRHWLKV
# Experimental: as §1
# [7] = biological target: T7, serotonin (5-HT) transporter (SERT) (Homo sapiens, UniProt P31645); assay: Competitive radioligand binding assay, 5-HT transporter (antagonist radioligand); settings: compound at 10 μM
# T7 construct: expressed in transfected cells; host or cells: CHO cells (membrane fractions)
# T7 sequence (P31645 whole entry): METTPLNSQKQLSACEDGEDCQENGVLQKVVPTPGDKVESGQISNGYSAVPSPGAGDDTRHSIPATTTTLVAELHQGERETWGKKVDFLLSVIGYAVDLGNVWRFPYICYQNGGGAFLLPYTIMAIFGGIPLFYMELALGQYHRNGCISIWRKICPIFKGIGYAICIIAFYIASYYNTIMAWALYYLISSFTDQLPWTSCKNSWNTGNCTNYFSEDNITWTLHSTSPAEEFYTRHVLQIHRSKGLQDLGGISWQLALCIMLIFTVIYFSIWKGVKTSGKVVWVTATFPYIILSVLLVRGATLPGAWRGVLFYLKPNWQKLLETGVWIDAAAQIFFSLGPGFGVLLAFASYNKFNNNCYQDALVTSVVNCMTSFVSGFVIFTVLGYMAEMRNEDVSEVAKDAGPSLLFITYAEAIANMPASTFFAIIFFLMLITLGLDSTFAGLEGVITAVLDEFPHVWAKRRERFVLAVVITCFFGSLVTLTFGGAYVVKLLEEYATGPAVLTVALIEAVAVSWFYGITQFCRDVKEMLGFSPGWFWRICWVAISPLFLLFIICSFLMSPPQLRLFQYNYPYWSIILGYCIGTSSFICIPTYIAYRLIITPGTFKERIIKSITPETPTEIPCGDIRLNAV
# Experimental: as §1
# [8] = biological target: T8, vesicular monoamine transporter (VMAT2) (Rattus norvegicus, UniProt Q01827); assay: Competitive radioligand binding assay, VMAT2 transporter (antagonist radioligand); settings: compound at 10 μM
# T8 construct: Rat brain; from tissue; host or cells: rat brain minus cerebellum, membrane fraction
# T8 sequence (Q01827 whole entry): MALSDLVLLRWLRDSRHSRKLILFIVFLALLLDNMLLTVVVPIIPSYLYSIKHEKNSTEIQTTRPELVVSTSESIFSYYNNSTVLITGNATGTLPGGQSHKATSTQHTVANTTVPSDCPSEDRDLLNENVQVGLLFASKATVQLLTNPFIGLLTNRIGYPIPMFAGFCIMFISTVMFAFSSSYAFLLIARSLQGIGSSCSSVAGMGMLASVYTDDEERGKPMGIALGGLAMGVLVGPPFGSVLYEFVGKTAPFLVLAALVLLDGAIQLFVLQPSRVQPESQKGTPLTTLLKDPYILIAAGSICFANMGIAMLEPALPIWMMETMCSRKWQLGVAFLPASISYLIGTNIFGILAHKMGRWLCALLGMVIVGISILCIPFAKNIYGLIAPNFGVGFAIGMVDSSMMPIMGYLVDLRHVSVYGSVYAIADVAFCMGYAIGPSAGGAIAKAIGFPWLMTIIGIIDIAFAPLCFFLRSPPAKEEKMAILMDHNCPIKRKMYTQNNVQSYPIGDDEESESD
# Experimental: as §1
# [9] = 1st individual result, read-out: % inhibition of control specific binding, 1st
# [10] = 2nd individual result, read-out: % inhibition of control specific binding, 2nd
# [11] = mean, read-out: % inhibition of control specific binding, Mean
# [12] = D2S, 1st individual result, read-out: % inhibition of control specific binding, 1st
# [13] = D2S, 2nd individual result, read-out: % inhibition of control specific binding, 2nd
# [14] = D2S, mean, read-out: % inhibition of control specific binding, Mean
# [15] = [3H]7-OH-DPAT 1 nM, human recombinant (HEK-293 cells), read-out: % Inhibition of Binding at Each Transporter or Receptor Target, D2S
# [16] = D2L, 1st individual result, read-out: % inhibition of control specific binding, 1st
# [17] = D2L, 2nd individual result, read-out: % inhibition of control specific binding, 2nd
# [18] = D2L, mean, read-out: % inhibition of control specific binding, Mean
# [19] = [3H]methyl-spiperone 0.3 nM, human recombinant (HEK-293 cells), read-out: % Inhibition of Binding at Each Transporter or Receptor Target, D2L
# [20] = Norepinephrine transporter, 1st individual result, read-out: % inhibition of control specific binding, 1st
# [21] = Norepinephrine transporter, 2nd individual result, read-out: % inhibition of control specific binding, 2nd
# [22] = Norepinephrine transporter, mean, read-out: % inhibition of control specific binding, Mean
# [23] = [3H]nisoxetine 1 nM, human recombinant (CHO cells), read-out: % Inhibition of Binding at Each Transporter or Receptor Target, NET
# [24] = Dopamine transporter, 1st individual result, read-out: % inhibition of control specific binding, 1st
# [25] = Dopamine transporter, 2nd individual result, read-out: % inhibition of control specific binding, 2nd
# [26] = Dopamine transporter, mean, read-out: % inhibition of control specific binding, Mean
# [27] = [3H]BTCP 4 nM, human recombinant (CHO cells), read-out: % Inhibition of Binding at Each Transporter or Receptor Target, DAT
# [28] = 5-HT transporter, 1st individual result, read-out: % inhibition of control specific binding, 1st
# [29] = 5-HT transporter, 2nd individual result, read-out: % inhibition of control specific binding, 2nd
# [30] = 5-HT transporter, mean, read-out: % inhibition of control specific binding, Mean
# [31] = [3H]imipramine 2 nM, human recombinant (CHO cells), read-out: % Inhibition of Binding at Each Transporter or Receptor Target, SERT
# [32] = VMAT2 transporter, single value, read-out: % inhibition of control specific binding, 1st
# [33] = [3H]dihydrotetrabenazine 10 nM, rat brain (minus cerebellum), read-out: % Inhibition of Binding at Each Transporter or Receptor Target, VMAT2
Structure (SMILES),"inhibition at 10 µM [1, 9] [%]","inhibition at 10 µM [1, 10] [%]","inhibition at 10 µM [1, 11] [%]","inhibition at 10 µM [2, 9] [%]","inhibition at 10 µM [2, 10] [%]","inhibition at 10 µM [2, 11] [%]","inhibition at 10 µM [3, 12] [%]","inhibition at 10 µM [3, 13] [%]","inhibition at 10 µM [3, 14] [%]","inhibition at 10 µM [3, 15] [%]","inhibition at 10 µM [4, 16] [%]","inhibition at 10 µM [4, 17] [%]","inhibition at 10 µM [4, 18] [%]","inhibition at 10 µM [4, 19] [%]","inhibition at 10 µM [5, 20] [%]","inhibition at 10 µM [5, 21] [%]","inhibition at 10 µM [5, 22] [%]","inhibition at 10 µM [5, 23] [%]","inhibition at 10 µM [6, 24] [%]","inhibition at 10 µM [6, 25] [%]",further results
"NC(=O)NC[C@H](N)Cc1ccccc1 [Compound 3, (R)-1-(2-Amino-3-phenylpropyl)urea hydrochloride]",1.7,7.8,4.8,8.6,22.6,15.6,-1.6,0.2,-0.7,-0.7,-6.7,7.6,0.5,0.5,42.6,23,32.8,32.8,86.8,90.5,"inhibition at 10 µM [6, 26]: 88.6%; inhibition at 10 µM [6, 27]: 88.6%; binding to the dopamine transporter (in words) [6]: substantial binding; inhibition at 10 µM [7, 28]: -2.4%; inhibition at 10 µM [7, 29]: -0.4%; inhibition at 10 µM [7, 30]: -1.4%; inhibition at 10 µM [7, 31]: -1.4%; inhibition at 10 µM [8, 32]: 0%; inhibition at 10 µM [8, 33]: 0%"
"N[C@@H](COS(N)(=O)=O)Cc1ccccc1 [Compound 9, (R)-2-Amino-3-phenylpropyl sulfamate hydrochloride]",65.7,70.8,68.3,65.8,60.9,63.4,45.3,33.7,39.5,39.5,-2.2,-6.8,-4.5,-4.5,-3.7,14,5.1,5.1,26.4,44,"binding to the norepinephrine transporter (in words) [5]: substantial binding; inhibition at 10 µM [6, 26]: 35.2%; inhibition at 10 µM [6, 27]: 35.2%; binding to the dopamine transporter (in words) [6]: substantial; inhibition at 10 µM [7, 28]: -1.7%; inhibition at 10 µM [7, 29]: -3.7%; inhibition at 10 µM [7, 30]: -2.7%; inhibition at 10 µM [7, 31]: -2.7%; inhibition at 10 µM [8, 32]: 16%; inhibition at 10 µM [8, 33]: 16%"
"NC(=S)OC[C@H](N)Cc1ccccc1 [Compound 8, (R)—O-(2-Amino-3-phenylpropyl) carbamothioate dihydrochloride]",60,61.3,60.6,50.6,47,48.8,33.5,21.4,27.4,27.4,-0.5,2.7,1.1,1.1,29.5,46.1,37.8,37.8,67.9,95.4,"binding to the norepinephrine transporter (in words) [5]: substantial binding; inhibition at 10 µM [6, 26]: 81.6%; inhibition at 10 µM [6, 27]: 81.6%; binding to the dopamine transporter (in words) [6]: substantial; inhibition at 10 µM [7, 28]: -1.9%; inhibition at 10 µM [7, 29]: -2.4%; inhibition at 10 µM [7, 30]: -2.1%; inhibition at 10 µM [7, 31]: -2.1%; inhibition at 10 µM [8, 32]: 6%; inhibition at 10 µM [8, 33]: 6%"
